Reference: US4731109A, “Herbicidal 2-haloacetanilides” (Monsanto Company, priority 1982, dated 1988)
Like-named read-outs stand apart in the source and are kept apart here.

Columns and labels:
Bristly Starbur = assay: Field preemergence activity in peanuts, surface applied; assay type: in vivo; conditions: for inhibition at 2240 g/ha / inhibition at 3360 g/ha / inhibition at 4480 g/ha: pre-emergence, read-out: Percent Inhibition; for inhibition at 2240 g/ha: 2.24 Kg/Ha; for inhibition at 3360 g/ha: 3.36 Kg/Ha; for inhibition at 4480 g/ha: 4.48 Kg/Ha
Source text: (§1) It will be understood by those skilled in the art that not all of the named weeds are selectively controlled in all of the named crops under all conditions of climate, soil, moisture and/or herbicide application modes. Selectivity data for control of the foregoing weeds in the crops soybeans, corn, cotton and peanuts from a plurality of field tests in various locations under various conditions of soil, moisture, etc., is shown collectively in Tables VIII-XI, respectively.
(§2) In Table XI is presented preemergence activity data for the compound of Example 1 against three resistant annual weeds, i.e., Texas panicum, bristly starbur and Florida pusley in peanuts for periods up to 12 WAT. The data in Table XI represent the average of three replicate runs in sandy loam soil having 1.3% organic matter, 79.2% sand and 10% clay; herbicide surface applied.

Florida Pusley = assay: as above; assay type: in vivo; conditions: for inhibition at 2240 g/ha: 2.24 Kg/Ha; for inhibition at 4480 g/ha: 4.48 Kg/Ha
Source text: as §1, §2

Texas panicum = assay: as above; assay type: in vivo; conditions: pre-emergence, read-out: Percent Inhibition; for inhibition at 2240 g/ha: 2.24 Kg/Ha; for inhibition at 3360 g/ha: 3.36 Kg/Ha; for inhibition at 4480 g/ha: 4.48 Kg/Ha
Source text: as §1, §2

peanuts = assay: as above; assay type: in vivo; conditions: pre-emergence, read-out: Percent Inhibition; for inhibition at 2240 g/ha: 2.24 Kg/Ha; for inhibition at 3360 g/ha: 3.36 Kg/Ha; for inhibition at 4480 g/ha: 4.48 Kg/Ha
Source text: as §1, §2

[1] = Toxicology studies, eye irritation; conditions: in vivo
Source text: (§3) Toxicology studies on the compound of Example 1 have indicated the compound to be quite safe. […] No special handling procedures beyond normal precautions are deemed necessary.

[2] = Toxicology studies, skin irritation; conditions: in vivo
Source text: as §3

[3] = test system: annual grasses, annual broadleafs and perennials; assay: Other tests, preemergence selective control or suppression of weeds; assay type: in vivo
[4] = pre-emergence, 4 WAT, read-out: Percent Inhibition
[5] = pre-emergence, 8 WAT, read-out: Percent Inhibition

CCOCN(C(=O)CCl)c1c(C)cccc1C(F)(F)F [Example 1, N-(ethoxymethyl)-2'-trifluoromethyl-6'-methyl-2-chloroacetanilide]
control (Bristly Starbur; 4.48 kg/ha, 12 WAT): complete control | inhibition at 2240 g/ha (Bristly Starbur; 8 WAT): 78% | inhibition at 2240 g/ha (Bristly Starbur; 12 WAT): 40% | inhibition at 3360 g/ha (Bristly Starbur; 8 WAT): 85% | inhibition at 3360 g/ha (Bristly Starbur; 12 WAT): 60% | inhibition at 4480 g/ha (Bristly Starbur; 8 WAT): 95% | inhibition at 4480 g/ha (Bristly Starbur; 12 WAT): 100% | control (Florida Pusley; 4.48 kg/ha, 12 WAT): 95% | inhibition at 2240 g/ha (Florida Pusley; [4]): 0% | inhibition at 2240 g/ha (Florida Pusley; [5]): 90% | inhibition at 3360 g/ha (Florida Pusley; pre-emergence, 3.36 Kg/Ha, 4 WAT, read-out: Percent Inhibition): 0% | inhibition at 4480 g/ha (Florida Pusley; [4]): 0% | inhibition at 4480 g/ha (Florida Pusley; [5]): 95% | inhibition at 4480 g/ha (Florida Pusley; pre-emergence, 12 WAT, read-out: Percent Inhibition): 95% | inhibition at 2240 g/ha (Texas panicum; 4 WAT): 50% | inhibition at 2240 g/ha (Texas panicum; 8 WAT): 67% | inhibition at 2240 g/ha (Texas panicum; 12 WAT): 40% | inhibition at 3360 g/ha (Texas panicum; 4 WAT): 68% | inhibition at 3360 g/ha (Texas panicum; 8 WAT): 63% | inhibition at 3360 g/ha (Texas panicum; 12 WAT): 55% | inhibition at 4480 g/ha (Texas panicum; 4 WAT): 85% | inhibition at 4480 g/ha (Texas panicum; 8 WAT): 88% | inhibition at 4480 g/ha (Texas panicum; 12 WAT): 78% | inhibition at 2240 g/ha (peanuts; 4 WAT): 5% | inhibition at 2240 g/ha (peanuts; 8 WAT): 0% | inhibition at 2240 g/ha (peanuts; 12 WAT): 0% | inhibition at 3360 g/ha (peanuts; 4 WAT): 10% | inhibition at 3360 g/ha (peanuts; 8 WAT): 0% | inhibition at 3360 g/ha (peanuts; 12 WAT): 0% | inhibition at 4480 g/ha (peanuts; 4 WAT): 17% | inhibition at 4480 g/ha (peanuts; 8 WAT): 7% | inhibition at 4480 g/ha (peanuts; 12 WAT): 0% | eye irritation [1]: slight eye irritation | skin irritation [2]: no skin irritation | preemergence selective control or suppression of weeds ([3]; in soybeans, corn, cotton, peanuts, beans, potatoes, tree fruits, turf grasses): effectiveness for premergence selective control or suppression | competition from seedling johnsongrass, Texas panicum, sandbur, shattercane, Florida beggarweed, lambsquarters, ragweed, prickley sida and smartweed ([3]; in vivo): reduces competition
